Laboratory results reported in US11103605B2, “PET-imaging immunomodulators” (BRISTOL-MYERS SQUIBB COMPANY, priority 2016, dated 2021).

Experiment: Stability of reconstituted [^18F]-FPPEGA in 1× PBS buffer
Type: physicochemical
Conditions: 37° C.
Experimental: An aqueous [^18F]-Fluoride solution (2.0 ml, 33.3 GBq/900 mCi) was purchased from P.E.T. Net® Pharmaceuticals in West Point PA and directly transferred to a Sep-Pak light QMA [The Sep-Pak light QMA cartridge was pre-conditioned sequentially with 5 ml of 0.5 M potassium bicarbonate, 5 ml of deionized water, and 5 ml of MeCN before use.] Upon completion of this transfer, the aqueous [^18F] fluoride was released from the QMA Sep-Pak by the sequential addition of potassium carbonate (15 mg/ml; 0.1 ml) followed by a mixture of potassium carbonate (30 mg/ml, 0.1 ml), 4,7,13,16,21,24-hexaoxa-1,10-diazabicyclo[8.8.8]hexacosane (15 mg, 0.04 mmol) and 1.2 ml of MeCN. The solvent was evaporated under a gentle stream of nitrogen at 90° C. and vacuum. Azeotropic drying was repeated twice with 1 ml portions of acetonitrile to generate the anhydrous K.2.2.2/K[^18F]F complex. […] The entire contents of the crude reaction mixture was then transferred, loaded, and purified using reverse phase HPLC under the following conditions: HPLC Column: Luna C18 250×10 Solvent A: 0.1% TFA in DI water; solvent B: 0.1% TFA in acetonitrile at a flow rate of 4.6 ml/minute using isocratic method 32% B while the UV was monitored at 280 nm. […]

stable in 100% 1× PBS buffer: over 1 hour
Compound: [N-]=[N+]=NCCOCCOCCOCCOc1cccnc1[18F] [[^18F]-3-(2-(2-(2-(2-azidoethoxy)ethoxy)ethoxy)ethoxy)-2-fluoropyridine]
